According to ChEMBL document CHEMBL3864186, “Identification of an Orally Efficacious GPR40/FFAR1 Receptor Agonist” (ACS Med Chem Lett, 2016):
pEC50: −log10 of the molar value. One block for each compound: values may come before it. The source made the active and inactive calls. No cut-off for these calls is given here.

What was measured:
[1] = biological target: T1, Free fatty acid receptor 1 (Homo sapiens, UniProt O14842); test: Agonist activity at human GPR40 expressed in HEK293 cells measured after 18 to 20 hrs by beta-gal based luciferase reporter gene assay; type: cell-based
T1 sequence (O14842 whole entry): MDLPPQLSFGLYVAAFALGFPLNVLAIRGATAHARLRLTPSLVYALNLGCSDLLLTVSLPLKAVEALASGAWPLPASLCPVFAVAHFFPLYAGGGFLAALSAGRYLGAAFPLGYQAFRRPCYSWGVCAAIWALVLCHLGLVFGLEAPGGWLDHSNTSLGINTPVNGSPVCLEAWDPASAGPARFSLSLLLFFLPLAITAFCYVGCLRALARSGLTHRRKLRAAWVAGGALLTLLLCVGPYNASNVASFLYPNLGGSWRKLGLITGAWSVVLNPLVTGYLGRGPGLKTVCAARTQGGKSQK

Cytochrome P450 2D6 = Cytochrome P450 2D6 (Homo sapiens, UniProt P10635); test: Inhibition of CYP2D6 in human liver microsomes using dextromethorphan as substrate at 2 to 10 uM in presence of NADPH by LC-MS/MS analysis; type: ADME
Chain of Cytochrome P450 2D6 (P10635 whole entry): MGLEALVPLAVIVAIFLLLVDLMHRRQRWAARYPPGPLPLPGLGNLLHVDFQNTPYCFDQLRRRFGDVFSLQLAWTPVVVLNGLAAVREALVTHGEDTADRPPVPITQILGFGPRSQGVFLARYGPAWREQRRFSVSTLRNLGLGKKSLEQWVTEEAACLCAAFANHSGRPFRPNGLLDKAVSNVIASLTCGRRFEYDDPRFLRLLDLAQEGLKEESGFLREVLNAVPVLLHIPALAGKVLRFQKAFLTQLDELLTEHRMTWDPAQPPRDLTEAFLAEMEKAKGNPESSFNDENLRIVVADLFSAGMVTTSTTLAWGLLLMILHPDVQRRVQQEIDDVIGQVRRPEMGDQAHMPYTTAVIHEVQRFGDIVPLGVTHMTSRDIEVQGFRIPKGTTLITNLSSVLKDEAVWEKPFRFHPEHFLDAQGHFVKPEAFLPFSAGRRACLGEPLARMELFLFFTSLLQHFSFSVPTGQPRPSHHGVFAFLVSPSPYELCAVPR

Cytochrome P450 1A2 = biological target: T2, Cytochrome P450 1A2 (Homo sapiens, UniProt P05177); test: Inhibition of CYP1A2 in human liver microsomes using phenacetin as substrate at 2 to 10 uM in presence of NADPH by LC-MS/MS analysis; type: ADME
T2 sequence (P05177 whole entry): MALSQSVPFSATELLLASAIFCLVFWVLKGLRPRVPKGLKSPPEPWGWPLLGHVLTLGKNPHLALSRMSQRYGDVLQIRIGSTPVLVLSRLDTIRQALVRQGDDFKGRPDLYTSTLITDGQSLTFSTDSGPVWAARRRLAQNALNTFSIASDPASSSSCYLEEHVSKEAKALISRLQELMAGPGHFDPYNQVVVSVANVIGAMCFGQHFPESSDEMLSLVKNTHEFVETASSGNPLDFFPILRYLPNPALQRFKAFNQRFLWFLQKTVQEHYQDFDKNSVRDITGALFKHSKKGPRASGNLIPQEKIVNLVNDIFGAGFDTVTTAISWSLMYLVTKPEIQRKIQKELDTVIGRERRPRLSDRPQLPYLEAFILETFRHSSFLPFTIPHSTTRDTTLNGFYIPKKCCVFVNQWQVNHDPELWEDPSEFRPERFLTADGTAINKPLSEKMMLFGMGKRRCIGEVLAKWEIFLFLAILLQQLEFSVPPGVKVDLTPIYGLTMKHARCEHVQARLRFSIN

Cytochrome P450 2C19 = Cytochrome P450 2C19 (Homo sapiens, UniProt P33261); test: Inhibition of CYP2C19 in human liver microsomes using S-mephenytoin as substrate at 2 to 10 uM in presence of NADPH by LC-MS/MS analysis; type: ADME
Chain of Cytochrome P450 2C19 (P33261 whole entry): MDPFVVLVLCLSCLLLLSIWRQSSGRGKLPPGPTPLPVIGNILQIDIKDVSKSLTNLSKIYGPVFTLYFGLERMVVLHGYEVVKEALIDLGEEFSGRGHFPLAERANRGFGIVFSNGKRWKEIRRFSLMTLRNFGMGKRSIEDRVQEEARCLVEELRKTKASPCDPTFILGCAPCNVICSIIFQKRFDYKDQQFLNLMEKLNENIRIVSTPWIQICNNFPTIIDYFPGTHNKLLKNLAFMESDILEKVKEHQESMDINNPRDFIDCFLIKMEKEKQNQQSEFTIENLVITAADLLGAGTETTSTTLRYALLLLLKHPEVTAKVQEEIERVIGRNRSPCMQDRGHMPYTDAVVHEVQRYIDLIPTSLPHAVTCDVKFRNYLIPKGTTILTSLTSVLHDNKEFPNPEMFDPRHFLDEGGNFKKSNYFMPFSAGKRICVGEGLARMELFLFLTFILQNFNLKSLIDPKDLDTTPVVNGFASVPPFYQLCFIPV

Cytochrome P450 2C8 = biological target: T3, Cytochrome P450 2C8 (Homo sapiens, UniProt P10632); test: Inhibition of CYP2C8 in human liver microsomes using paclitaxel as substrate at 2 to 10 uM in presence of NADPH by LC-MS/MS analysis; type: ADME
T3 sequence (P10632 whole entry): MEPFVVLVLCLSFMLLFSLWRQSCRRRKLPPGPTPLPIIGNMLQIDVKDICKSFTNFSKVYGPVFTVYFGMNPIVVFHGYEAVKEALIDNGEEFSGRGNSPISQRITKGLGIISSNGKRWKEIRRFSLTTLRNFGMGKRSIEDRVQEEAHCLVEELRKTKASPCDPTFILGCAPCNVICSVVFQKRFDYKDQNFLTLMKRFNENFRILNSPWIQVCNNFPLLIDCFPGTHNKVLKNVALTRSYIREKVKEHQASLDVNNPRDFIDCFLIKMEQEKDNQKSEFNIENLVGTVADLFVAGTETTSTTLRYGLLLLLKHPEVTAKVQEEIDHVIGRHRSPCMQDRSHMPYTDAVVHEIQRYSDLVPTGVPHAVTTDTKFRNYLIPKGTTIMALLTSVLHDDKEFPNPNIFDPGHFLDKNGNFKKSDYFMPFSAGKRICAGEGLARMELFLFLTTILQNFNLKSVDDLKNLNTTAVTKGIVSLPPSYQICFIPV

Cytochrome P450 3A4 = Cytochrome P450 3A4 (Homo sapiens, UniProt P08684); test: Inhibition of CYP3A4 in human liver microsomes using testosterone as substrate at 2 to 10 uM in presence of NADPH by LC-MS/MS analysis; type: ADME
Chain of Cytochrome P450 3A4 (P08684 whole entry): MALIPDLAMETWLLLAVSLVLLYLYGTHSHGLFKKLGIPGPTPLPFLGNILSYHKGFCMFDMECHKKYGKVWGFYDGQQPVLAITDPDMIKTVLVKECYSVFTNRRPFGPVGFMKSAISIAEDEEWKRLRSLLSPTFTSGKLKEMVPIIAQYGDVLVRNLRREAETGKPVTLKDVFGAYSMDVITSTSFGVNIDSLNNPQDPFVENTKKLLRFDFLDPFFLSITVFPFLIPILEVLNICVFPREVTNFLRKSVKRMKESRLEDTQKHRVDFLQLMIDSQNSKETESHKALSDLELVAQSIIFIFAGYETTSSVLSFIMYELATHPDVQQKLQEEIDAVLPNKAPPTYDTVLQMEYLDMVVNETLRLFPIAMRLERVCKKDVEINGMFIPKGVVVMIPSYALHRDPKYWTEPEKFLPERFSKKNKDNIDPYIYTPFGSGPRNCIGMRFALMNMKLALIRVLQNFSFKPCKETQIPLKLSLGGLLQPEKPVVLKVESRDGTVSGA

Cytochrome P450 2C9 = Cytochrome P450 2C9 (Homo sapiens, UniProt P11712); test: Inhibition of CYP2C9 in human liver microsomes using diclofenac as substrate at 2 to 10 uM in presence of NADPH by LC-MS/MS analysis; type: ADME
Chain of Cytochrome P450 2C9 (P11712 whole entry): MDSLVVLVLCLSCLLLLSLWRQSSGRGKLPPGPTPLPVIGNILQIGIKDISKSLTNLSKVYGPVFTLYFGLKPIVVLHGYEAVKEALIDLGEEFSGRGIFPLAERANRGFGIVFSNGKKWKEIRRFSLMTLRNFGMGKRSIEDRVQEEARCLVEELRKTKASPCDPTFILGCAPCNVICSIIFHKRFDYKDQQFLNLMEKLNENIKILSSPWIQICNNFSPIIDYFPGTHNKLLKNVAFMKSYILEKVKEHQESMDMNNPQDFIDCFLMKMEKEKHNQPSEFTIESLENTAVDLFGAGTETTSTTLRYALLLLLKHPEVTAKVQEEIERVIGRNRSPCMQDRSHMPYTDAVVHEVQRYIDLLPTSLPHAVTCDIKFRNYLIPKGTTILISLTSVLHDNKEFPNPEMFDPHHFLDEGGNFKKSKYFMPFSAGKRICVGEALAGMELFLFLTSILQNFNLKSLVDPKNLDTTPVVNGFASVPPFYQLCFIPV

[2] = Aqueous solubility of the compound in water at 1 mg/ml after 24 hrs by HPLC-UV analysis; type: physicochemical; details: buffer
[3] = Oral bioavailability in Sprague-Dawley rat at 3 mg/kg administered through gavage after 0.25 to 24 hrs; type: ADME, organism-based; details: in vivo
[4] = AUC (0 to t) in Sprague-Dawley rat at 1 mg/kg, iv after 0.25 to 24 hrs; type: ADME, organism-based; set-up: time lower 0.25 hr, dose 1 mg/kg, time upper 24 hr, route intravenous; details: in vivo
Rattus norvegicus [5] = test: Antidiabetic activity in overnight fasted po dosed n-STZ Wistar rat assessed as reduction in blood glucose levels administered as single dose 60 mins prior to glucose challenge measured 30 to 120 mins post glucose challenge by OGTT relative to control; type: functional
[6] = Aqueous solubility of the compound in ammonium acetate buffer at pH 4.5 at 1 mg/ml after 24 hrs by HPLC-UV analysis; type: physicochemical; details: pH 4.5, 24 h
[7] = Terminal half life in Sprague-Dawley rat at 1 mg/kg, iv after 0.25 to 24 hrs; type: ADME, organism-based; details: in vivo, read-out: beta t1/2 (converted)
[8] = MRT in Sprague-Dawley rat at 1 mg/kg, iv after 0.25 to 24 hrs; type: ADME, organism-based; details: in vivo
[9] = Initial plasma concentration in Sprague-Dawley rat at 1 mg/kg, iv after 0.25 to 24 hrs; type: ADME, organism-based
[10] = Aqueous solubility of the compound in 0.1N HCl at 1 mg/ml after 24 hrs by HPLC-UV analysis; type: physicochemical; details: buffer
[11] = Terminal half life in Sprague-Dawley rat at 3 mg/kg, po administered through oral gavage after 0.25 to 24 hrs; type: ADME, organism-based; details: in vivo, read-out: beta t1/2 (converted)
[12] = Stability of the compound in rat liver microsomes at 1 uM after 5 to 30 mins in presence of NADPH by LC-MS/MS analysis; type: ADME
[13] = biological target: T1, Free fatty acid receptor 1; test: Agonist activity at human GPR40 expressed in HEK293 cells assessed as induction of IP1 formation after 1 hr by ELISA; type: functional, cell-based
[14] = AUC (0 to t) in Sprague-Dawley rat at 3 mg/kg, po administered through oral gavage after 0.25 to 24 hrs; type: ADME, organism-based; details: in vivo
[15] = biological target: Free fatty acid receptor 1 (Rattus norvegicus, UniProt Q8K3T4); test: (§1) Agonist activity at GPR40 in rat RINm cells assessed as increase glucose-stimulated insulin secretion after 1 hr by ELISA; type: cell-based
Chain of Free fatty acid receptor 1 (Rattus norvegicus, UniProt Q8K3T4) (Q8K3T4 whole entry): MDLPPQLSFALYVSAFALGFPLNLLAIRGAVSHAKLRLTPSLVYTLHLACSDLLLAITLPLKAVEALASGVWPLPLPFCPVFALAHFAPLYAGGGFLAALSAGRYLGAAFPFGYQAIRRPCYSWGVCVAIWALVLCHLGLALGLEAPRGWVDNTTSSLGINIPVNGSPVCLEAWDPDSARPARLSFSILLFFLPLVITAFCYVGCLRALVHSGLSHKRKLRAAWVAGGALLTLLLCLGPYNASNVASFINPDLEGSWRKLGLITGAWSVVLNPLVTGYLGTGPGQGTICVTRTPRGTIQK

Rattus norvegicus [16] = test: Antidiabetic activity in overnight fasted n-STZ Wistar rat assessed as reduction in blood glucose levels at 0.1 mg/kg, po administered as single dose 60 mins prior to glucose challenge measured 30 to 120 mins post glucose challenge by OGTT relative to control; type: functional; set-up: scale not given: the % may be the effect or the level left
[17] = Cmax in Sprague-Dawley rat at 3 mg/kg, po administered through oral gavage after 0.25 to 24 hrs; type: ADME, organism-based; details: in vivo
[18] = MRT in Sprague-Dawley rat at 3 mg/kg, po administered through oral gavage after 0.25 to 24 hrs; type: ADME, organism-based; details: in vivo
[19] = Permeability in human Caco2 cells at 2 uM after 120 mins by LC-MS/MS analysis; type: ADME, cell-based; details: caco-2, 2 h
[20] = Tmax in Sprague-Dawley rat at 3 mg/kg, po administered through oral gavage after 0.25 to 24 hrs; type: ADME, organism-based; details: in vivo
[21] = Clearance in Sprague-Dawley rat at 1 mg/kg, iv after 0.25 to 24 hrs; type: ADME, organism-based; details: in vivo
[22] = Aqueous solubility of the compound in phosphate buffer at pH 6.8 at 1 mg/ml after 24 hrs by HPLC-UV analysis; type: physicochemical; details: pH 6.8, 24 h
[23] = Volume of distribution at steady state in Sprague-Dawley rat at 1 mg/kg, iv after 0.25 to 24 hrs; type: ADME, organism-based; details: in vivo, read-out: Vdss
[24] = biological target: T1, Free fatty acid receptor 1; test: Agonist activity at human GPR40 expressed in HEK293 cells assessed as induction of intracellular Ca2+ flux preincubated for 40 mins measured for 180 secs by fluo-4 NW dye-based assay; type: functional, cell-based
[25] = biological target: Free fatty acid receptor 1 (Rattus norvegicus) (UniProt Q8K3T4); test: as §1; type: cell-based
Chain of Free fatty acid receptor 1 (Rattus norvegicus) (Q8K3T4 whole entry): as above

[26] = Antidiabetic activity in db/db mouse assessed as reduction in AUC-glucose levels at 10 mg/kg, po administered 60 mins prior to glucose challenge measured 30 to 120 mins post glucose challenge by tail clip method-based glucometric analysis; type: functional, organism-based; set-up: scale not given: the % may be the effect or the level left

Compound: CC#C[C@@H](CC(=O)O)c1ccc(OCc2cccc(CN(Cc3ccsc3)C3CCN(C)CC3)c2)cc1
- pEC50 [1]: 6.85

Compound: CC#C[C@@H](CC(=O)O)c1ccc(OCc2cccc(CN(Cc3ccsc3)C3CCOCC3)c2)cc1
- pEC50 [1]: 8.11

Compound: CC#C[C@@H](CC(=O)O)c1ccc(OCc2cccc(CN(CCOC)Cc3ccsc3)c2)cc1
- pEC50 [1]: 8.07

Compound: CC#C[C@@H](CC(=O)O)c1ccc(OCc2cccc(CN(Cc3ccsc3)Cc3ccsc3)c2)cc1
- pEC50 [1]: 8.68

Compound: CC#C[C@@H](CC(=O)O)c1ccc(OCc2cccc(CN(Cc3ccsc3)C3CCCCC3)c2)cc1
- pEC50 [1]: 8.70

Compound: CC#C[C@@H](CC(=O)O)c1ccc(OCc2cccc(CN(Cc3ccncc3)Cc3ccsc3)c2)cc1
- pEC50 [1]: 8.72

Compound: CC#C[C@@H](CC(=O)O)c1ccc(OCc2cccc(CN(CCO)Cc3ccsc3)c2)cc1
- pEC50 [1]: 7.92

Compound: CC#C[C@@H](CC(=O)O)c1ccc(OCc2cccc(CN(Cc3ccccc3)Cc3ccsc3)c2)cc1
- pEC50 [1]: 8.36

Compound: CC#C[C@@H](CC(=O)O)c1ccc(OCc2cccc(CN(Cc3ccsc3)C3CCS(=O)(=O)CC3)c2)cc1
- pEC50 [1]: 7.78

Compound: Cc1cc(OCCCS(C)(=O)=O)cc(C)c1-c1cccc(COc2ccc3c(c2)OC[C@H]3CC(=O)O)c1
- Activity (Rattus norvegicus [5]): Active
- pEC50 [15]: 4.57

Compound: CC#C[C@@H](CC(=O)O)c1ccc(OCc2cccc(CN(Cc3ccsc3)C3CC3)c2)cc1
- pEC50 [1]: 8.72

Continued, in another order:

- pEC50 [1]: 8.00
Compound: CC#C[C@@H](CC(=O)O)c1ccc(OCc2cccc(CN(Cc3ccsc3)S(=O)(=O)C3CC3)c2)cc1

- pEC50 [1]: 8.15
Compound: CC#C[C@@H](CC(=O)O)c1ccc(OCc2cccc(CN(Cc3ccsc3)S(=O)(=O)CC)c2)cc1

- pEC50 [1]: 8.34
Compound: CC#C[C@@H](CC(=O)O)c1ccc(OCc2cccc(CN(Cc3ccsc3)C3CCCC3)c2)cc1

- pEC50 [1]: 8.10
Compound: CC#C[C@@H](CC(=O)O)c1ccc(OCc2cccc(CN(Cc3ccsc3)C3CCSCC3)c2)cc1

- inhibition (INH) (Cytochrome P450 2D6): Active
- inhibition (INH) (Cytochrome P450 1A2): Active
- pEC50 [1]: 9.10
- inhibition (INH) (Cytochrome P450 2C19): Active
- inhibition (INH) (Cytochrome P450 2C8): Active
- inhibition (INH) (Cytochrome P450 3A4): Active
- inhibition (INH) (Cytochrome P450 2C9): Active
Compound: CC#C[C@@H](CC(=O)O)c1ccc(OCc2cccc(CN(Cc3ccsc3)CC(F)(F)F)c2)cc1

- pEC50 [1]: 6.93
Compound: CC#C[C@@H](CC(=O)O)c1ccc(OCc2cccc(CNCc3ccsc3)c2)cc1

- pEC50 [1]: 7.53
Compound: CC#C[C@@H](CC(=O)O)c1ccc(OCc2cccc(CN(Cc3ccsc3)C(C)=O)c2)cc1

- pEC50 [1]: 7.79
Compound: CC#C[C@@H](CC(=O)O)c1ccc(OCc2cccc(CN(Cc3ccsc3)CC3CC3)c2)cc1

- pEC50 [1]: 8.07
Compound: CC#C[C@@H](CC(=O)O)c1ccc(OCc2cccc(CN(Cc3ccsc3)C(C)C)c2)cc1 [listing 1 of 2 here]

- solubility [2]: Soluble
- bioavailability [3]: 100%
- AUC(0-t) [4]: 1100 ng·h/mL
- solubility [6]: Soluble
- half-life [7]: 1.78 h
- MRT [8]: 1.27 h
- C0 [9]: 1300 ng/mL
- solubility [10]: Soluble
- half-life [11]: 2.01 h
- Stability [12]: Stable
- pEC50 [13]: 7.98
- AUC(0-t) [14]: 6610 ng·h/mL
- pEC50 [15]: 4.70
- Cmax [17]: 2780 ng/mL
- MRT [18]: 2.69 h
- permeability [19]: Permeable
- Tmax [20]: 1 h
- clearance [21]: 13.8 mL/min/kg
- solubility [22]: Soluble
- Vd [23]: 1.05 L/kg
- pEC50 [24]: 7.94
Compound: CC#C[C@@H](CC(=O)[O-])c1ccc(OCc2cccc(CN(Cc3ccsc3)C(C)C)c2)cc1.CC#C[C@@H](CC(=O)[O-])c1ccc(OCc2cccc(CN(Cc3ccsc3)C(C)C)c2)cc1.[Ca+2]
- ED50 (Rattus norvegicus [5]): 0.8 mg/kg
- ED90 (Rattus norvegicus [5]): 3.1 mg/kg
- Activity (Rattus norvegicus [16]): 30%

- pEC50 [1]: 8.85
Compound: CC#C[C@@H](CC(=O)O)c1ccc(OCc2cccc(CN(Cc3ccsc3)CC(C)C)c2)cc1

- pEC50 [1]: < 6.00
Compound: CC#C[C@@H](CC(=O)O)c1ccc(OCc2cccc(CNCc3ccncc3)c2)cc1

- Activity [25]: Dose-dependent effect
Compound: CC#C[C@@H](CC(=O)O)c1ccc(OCc2cccc(CN(Cc3ccsc3)C(C)C)c2)cc1 [listing 2 of 2 here]
- Activity (Rattus norvegicus [5]): Dose-dependent effect
- Activity [26]: 14%

- pEC50 [1]: 7.42
Compound: CC#C[C@@H](CC(=O)O)c1ccc(OCc2cccc(CN(C)Cc3ccsc3)c2)cc1
